Source: a melting point compilation (Tetko et al.; mined from patent text by program, amines drawn as free bases though some values may be those of a salt)

SMILES | melting point [°C]
Cn1c(C(F)(F)F)cc(=O)n(-c2cc(Oc3ccccc3OCC(=O)OC(C)(C)C)c(Cl)cc2F)c1=O | 55.6
CCCCOCCOc1ccc(-c2ccc3c(c2)C=C(C(=O)O)CCN3c2ccccc2)cc1 | 129 to 131
c1cc(-n2cccc2)cc(-n2cnc3cc(-c4ccoc4)ccc32)c1 | 144 to 145
CCCCCCCCCCCCCCCCCCN1C(=O)CC(c2cc(C(C)(C)C)c(O)c(C(C)(C)C)c2)C1=O (configuration not stated) | 70 to 73
Nc1ccc(I)cc1CO | 125
CN(c1ccc(OC(F)(F)F)cc1)c1cc(C(F)(F)F)nc(NN=Cc2ccc(OC(F)(F)F)cc2)n1 | 180 to 182
C[C@@H]1C[C@H](I)[C@@H]2C[C@H]1C(=O)O2 | 99 to 100
CCNc1c(OC)cc(Cc2cnc(N)nc2N)cc1OC | 186 to 188
CCCCCCCc1nc(-c2ccccc2)c(-c2ccccc2)n1CCCCCCCC(=O)O | 75 to 76
CCc1cc(CC)c(N)cc1N | 49 to 51
CCCNc1nc(=O)c(C)cn1C1CC(N=[N+]=[N-])C(CO)O1 (configuration not stated) | 146
Nc1cc(Cl)c(N2CCCCC2)cc1-c1noc(=O)[nH]1 | 186 to 189
COc1cc2c(cc1O)CCC1C3=CCC(O)C3(C)CCC21 (configuration not stated) | 169 to 171
COc1ccc(C2(CCN3CCC(O)(c4nc5ccccc5n4Cc4ccc(F)cc4)CC3)CCN(C(=O)c3ccccc3)C2)cc1OC (configuration not stated) | 111 to 114
CCOCc1nc2c(N)nc3cc(OCCCc4cccnc4)ccc3c2n1CC(C)(C)O | 160 to 161
Nc1ncnc2c1c(Br)cn2COCCO | 163 to 164
C[C@H](Cc1cc2c(c(C(N)=O)c1)N(CCCCOCc1ccccc1)CC2)NCCOc1ccccc1OCC(F)(F)F | 101 to 102
N#CC(=Cc1cc(O)c(O)c(Cl)c1)C(=O)Nc1cccc(Cl)c1 | > 300
O=C(NC1CN(Cc2ccccc2)CCN(Cc2ccccc2)C1)c1n[nH]c2ccccc12 | 115 to 116
CC(C)(O)C#Cc1ccccc1 | 52 to 53
CC(C)(C)OC(=O)C[C@H](O)CC#N | 63 to 64
CC(OC=O)C1C(=O)N([Si](C)(C)C(C)(C)C)C1CC(=O)O (mixture of isomers) | 109 to 110
CCn1nc2c(n1)C(N1CCN(C)CC1)=Nc1cc(Cl)ccc1N2 | 180 to 182

SMILES | melting point [°C]
CCCCCCCCCCCCOc1ccc(-c2ncc(-c3ccc(O)c(F)c3F)cn2)cn1 | 111 to 118
C=CS(=O)(=O)C(C(=O)NC)S(=O)(=O)C=C | 143 to 147
COc1cc2c3c4c(c(-c5ccccc5)cc3n(C)c2cc1OS(=O)(=O)C(F)(F)F)C(=O)NC4=O | 244 to 246
Nc1nc2c(ncn2[C@@H]2CO[C@H](CO)[C@@H](O)C2)c(=O)[nH]1 | > 300
CN1CCC(O)(c2cccc3ccc(N(Cc4ccccc4)Cc4ccccc4)cc23)CC1 | 173 to 174
CCOC(=O)C1CCN(C(=O)COc2cc(-c3ccccc3)nc3ccccc23)CC1 | 120
COC(=O)c1cnc(C)n1C | 38 to 40
C#C[C@](C)(O)CCc1c(C)c(OC(C)=O)c(C)c(C)c1OC(C)=O | 96 to 102
CCc1nc2c(C)cc(C)nc2n1Cc1ccc(C(=C(Cl)c2nnn[nH]2)c2ccccc2)cc1 | 119 to 132
O=[N+]([O-])c1nccn1COCCO | 115
O=C(NC1CCCCC1)N(C(=O)c1ccccc1[N+](=O)[O-])C1CCCCC1 | 134
C[C@H](NC(=O)c1cccnc1Oc1cccnc1)c1cccs1 | 196 to 198
O=[N+]([O-])c1ccc(Oc2cccc(Oc3ccc([N+](=O)[O-])c(O)c3)c2)cc1O | 180 to 182
O=C(c1ccc(CCl)cc1)N1CCCCC1 | 106 to 108
CCCCc1nc2c(N)nc3ccccc3c2n1CCN | 196 to 199
O=C(O)C1CCC(=O)N1c1cccc(O)c1 (configuration not stated) | 183 to 185
O=C(Nc1ccc2[nH]c(=O)oc2c1)C(=O)N1CCC(Cc2ccc(Cl)cc2)CC1 | 147 to 148
COc1ccc(C(=O)Nc2c(Cl)cncc2Cl)c2c1OCC2CC(=O)NCc1ccc(F)cc1 (configuration not stated) | 287
NC(=S)Nc1ccc(CCNCc2cccc(Cl)c2)cc1 | 132 to 134
CNc1nn2nnnc2c2c1CCCC2 | 318
Ic1ccc(OC23CC4CC(CC(C4)C2)C3)cc1 | 115 to 118
OCc1cn(-c2ccc(OC(F)(F)F)c(Cl)c2)cn1 | 115 to 116

Second part, the molecule after the results:

melting point [°C] | SMILES
> 300 | CCCn1ncc2c(C3C(=O)Nc4ccc(C#N)cc43)ncnc21 (configuration not stated)
112 | COc1ccc2cccc(C(=O)C(N)=O)c2c1
231 to 232 | COC(=O)C1=C(C)NC(C)=C(C(=O)OC)C1c1cccc(NC(=O)C(F)(F)F)c1
165 to 166 | CC(C)(C)c1cc(C(=O)c2ccc(Cl)cc2)cc(CN2CCOCC2)c1O
228 to 230 | CC(C)n1nc(-c2sc(NC(=O)c3ccccc3)nc2-c2ccc(F)cc2)ccc1=O
117 to 118 | CS(=O)c1ccc(C2=C(Br)C(=O)C(C)(C)O2)cc1 (configuration not stated)
113 to 115 | CSc1sc(C(=O)N(C)C)c2c1-c1oncc1C(C)(C)C2
167 to 168 | CCCCCN(C(=O)c1cnc(N2CC(C)(C)NC2=O)nc1N)c1cccc(C(F)(F)F)c1
162 to 163 | Cc1cc(CCC(=O)OC(C)(C)C)nc(-c2nc(=O)c3ccc(Cl)cc3s2)c1
163 to 165 | CC1(Br)COc2ccc(C#N)cc21 (configuration not stated)
96 to 97 | CCOC(=O)c1cccc(-c2cccc3cc(CBr)sc23)c1
100 to 101 | CCCCCn1c(=O)c(-c2ccccc2)c2n(c1=O)CCCS2
84 to 88 | CC1(C)CCC(C)(C)c2cc(C#Cc3ccc(CN)cc3)ccc21
96 to 98 | COC(=O)Cc1ccc(C(=O)c2ccccc2)n1C
150 to 152 | CC(=O)Nc1ccc(C=CC(=O)c2ccc(OCC=C(C)C)cc2O)cc1
110 to 114 | CCC(=O)C1=C(O)CC(c2ccc(Oc3cccc(S(C)(=O)=O)c3)cc2)CC1=O (configuration not stated)
204 to 207 | O=C(Nc1ccccc1)NN1CCCOC1=O
150 to 151 | C=C=COc1ccccc1S(=O)(=O)NC(=O)Nc1nc(C)nc(OC)n1
221 | CCOc1ccc2c(c1)n(C13CC4CC(CC(C4)C1)C3)c(=O)n2S(=O)(=O)c1ccc(NC(=O)N(CC)CC)cc1OC
72.5 to 74.5 | O=[N+]([O-])c1ccc(S(=O)CCCCl)cc1 (configuration not stated)
136 to 138 | COC(=O)C1C(c2ccc(F)c(C)c2)=CCCC1(C)C (configuration not stated)
153 to 157 | O=C(O)COc1ccc(C(=O)Nc2cccc(Cl)c2Cl)cc1
197 to 200 | CS(=O)(=O)c1ccc(-c2cnn(CC(F)(F)F)c(=O)c2Sc2nc[nH]n2)cc1
146 | Cc1nc(NC(=O)Nc2cccc3c2C2CCCCN2C3=O)cs1 (configuration not stated)
165 to 167 | Cc1cc(Cc2ccc(NS(C)(=O)=O)cc2F)n(C)c1C(=O)c1ccccc1
157 to 158 | Cc1ccn(-c2ccc(S(C)(=O)=O)cc2)c1-c1ccc(F)cc1
170 to 173 | Cc1ccccc1Oc1cccc(C(N)C(=O)O)c1O (configuration not stated)
